In patent US20040044008A1, “Use of therapeutic benzamide derivatives” (priority 2000, published 2004):

Tests used:
human MTP = human MTP (Homo sapiens, UniProt P55157); experiment: human MTP activity assay (SPA, 3H-triolein transfer between liposomes); assay type: biochemical; details: human MTP-mediated 3H-triolein transfer from donor to acceptor liposomes, 25 min incubation at 37° C., streptavidin-SPA beads
Excerpt: Such derivatives are clear to those skilled in the art, without undue experimentation, and with reference to the teaching of Burger's Medicinal Chemistry And Drug Discovery, 5th Edition, Vol 1: Principles And Practice, which is incorporated herein by reference. […] MTP inhibitors may be used in the treatment of non-insulin dependent diabetes mellitus, insulin resistance, coronary heart disease, prevention of stroke, pancreatitis, hypercholesterolemia, hypertriglyceridemia, hyperlipemia, mixed dyslipidemia, post-prandial hyperlipemia, atherosclerosis and obesity. The ability of the compounds of this invention to inhibit human MTP activity is measured by an in vitro assay where MTP transfers 3H-triolein between phosphatidylcholine liposomes. The specificity of the compounds of the invention is established by comparing the effects on apoB-100 and apoprotein A-1 production. A specificity of at least 100 is preferred.
The human MTP activity assay was established using SPA technology. Donor liposomes were prepared with 3H-triolein and phosphatidylcholine, while acceptor liposomes contained biotinylated phosphatidylethanolamine and phosphatidylcholine. The MTP-mediated 3H-triolein transfer onto acceptor liposomes was allowed by a 25 min incubation at 37° C., and quantified by the addition of streptavidin-SPA beads.

Chain of human MTP (P55157 19-894): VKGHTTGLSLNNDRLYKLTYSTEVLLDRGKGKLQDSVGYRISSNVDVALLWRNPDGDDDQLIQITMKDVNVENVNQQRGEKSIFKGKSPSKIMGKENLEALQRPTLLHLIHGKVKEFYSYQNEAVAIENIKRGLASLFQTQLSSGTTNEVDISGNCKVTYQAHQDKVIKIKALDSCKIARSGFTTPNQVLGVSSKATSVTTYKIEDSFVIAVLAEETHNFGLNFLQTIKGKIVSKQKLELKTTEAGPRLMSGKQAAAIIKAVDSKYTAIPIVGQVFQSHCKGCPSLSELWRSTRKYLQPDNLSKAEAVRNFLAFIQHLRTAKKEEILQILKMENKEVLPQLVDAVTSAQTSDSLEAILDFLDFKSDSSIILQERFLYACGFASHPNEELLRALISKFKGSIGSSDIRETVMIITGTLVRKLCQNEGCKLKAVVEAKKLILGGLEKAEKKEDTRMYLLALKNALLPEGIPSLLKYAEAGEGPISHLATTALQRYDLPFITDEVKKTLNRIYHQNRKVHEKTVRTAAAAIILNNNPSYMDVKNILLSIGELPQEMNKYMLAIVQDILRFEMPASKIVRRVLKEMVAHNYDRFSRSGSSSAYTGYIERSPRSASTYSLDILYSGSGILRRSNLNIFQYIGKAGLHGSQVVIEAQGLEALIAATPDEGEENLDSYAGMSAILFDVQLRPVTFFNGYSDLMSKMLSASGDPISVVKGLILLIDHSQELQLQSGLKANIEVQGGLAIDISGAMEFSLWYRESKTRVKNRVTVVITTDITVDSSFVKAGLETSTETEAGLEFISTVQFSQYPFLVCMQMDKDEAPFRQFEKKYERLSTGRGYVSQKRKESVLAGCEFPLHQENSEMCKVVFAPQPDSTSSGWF
Chain of human MTP (P07237 18-508 partner): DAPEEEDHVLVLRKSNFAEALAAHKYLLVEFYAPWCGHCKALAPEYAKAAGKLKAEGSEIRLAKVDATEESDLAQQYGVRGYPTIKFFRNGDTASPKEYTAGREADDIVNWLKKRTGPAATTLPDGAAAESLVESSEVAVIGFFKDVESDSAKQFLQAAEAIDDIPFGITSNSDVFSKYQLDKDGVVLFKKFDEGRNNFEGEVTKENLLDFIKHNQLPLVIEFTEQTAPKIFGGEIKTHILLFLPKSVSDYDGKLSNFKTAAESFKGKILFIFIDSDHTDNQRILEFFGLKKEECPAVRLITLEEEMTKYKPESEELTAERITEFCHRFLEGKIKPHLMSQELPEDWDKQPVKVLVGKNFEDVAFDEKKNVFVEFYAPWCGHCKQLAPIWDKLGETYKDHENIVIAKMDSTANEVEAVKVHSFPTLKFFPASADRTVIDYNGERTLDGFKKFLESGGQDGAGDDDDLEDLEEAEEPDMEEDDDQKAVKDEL

| IC50 (human MTP) | melting point | Compound |
| --- | --- | --- |
| 0.3 nM |  | Cc1ccc(C(=O)Nc2ccc(N3CCN(Cc4cccc(C#N)c4)CC3)cc2)c(-c2ccc(C(C)C)cc2)c1 [Example 2, 4′-Isopropyl-5-methyl-biphenyl-2-carboxylic acid [4-[4-(3-cyano-benzyl)-piperazin-1-yl]-phenyl]-amide] |
| 0.2 nM |  | COc1cccc(C(=O)Nc2ccc(N3CCN(Cc4cccc(C#N)c4)CC3)cc2)c1-c1ccc(C(C)C)cc1 [Example 3, 4′-Isopropyl-6-methoxy-biphenyl-2-carboxylic acid [4-[4-(3-cyano-benzyl)-piperazin-1-yl]-phenyl]-amide] |
| 0.2 nM |  | Cc1cccc(C(=O)Nc2ccc(N3CCN(Cc4cccc(C#N)c4)CC3)cc2)c1-c1ccc(C(C)C)cc1 [Example 4, 4′-Isopropyl-6-methyl-biphenyl-2-carboxylic acid [4-[4-(3-cyano-benzyl)-piperazin-1-yl]-phenyl]-amide] |
| 0.3 nM |  | Cc1ccc(C(=O)Nc2ccc(N3CCN(Cc4cccc(-c5nc(C)no5)c4)CC3)cc2)c(-c2ccc(C(C)C)cc2)c1 [Example 6] |
|  | 194 to 196 °C | O=C(Nc1ccc(N2CCN(Cc3cc[nH]n3)CC2)cc1)c1ccccc1-c1ccc(C(F)(F)F)cc1 [Example 71, 4′-Trifluoromethyl-biphenyl-2-carboxylic acid {4-[4-(1H-pyrazole-3-ylmethyl)-piperazine-1-yl)-phenyl}-amide] |
|  | 187 to 189 °C | O=C(Nc1ccc(N2CCN(Cc3ccsc3)CC2)cc1)c1ccccc1-c1ccc(C(F)(F)F)cc1 [Example 72, 4′-Trifluoromethyl-biphenyl-2-carboxylic acid [4-(4-thiophen-3-ylmethyl-piperazin-1-yl)-phenyl]-amide] |
|  | 168 to 170 °C | O=C(Nc1ccc(N2CCN(Cc3c[nH]c4ccc(F)cc34)CC2)cc1)c1ccccc1-c1ccc(C(F)(F)F)cc1 [Example 73, 4′-Trifluoromethyl-biphenyl-2-carboxylic acid {4-[4-(5-fluoro-1H-indol-3-ylmethyl)-piperazin-1-yl]-phenyl}-amide] |
|  | 188 to 190 °C | O=C(Nc1ccc(N2CCN(Cc3cccc(-c4noc(C(F)(F)F)n4)c3)CC2)cc1)c1ccccc1-c1ccc(C(F)(F)F)cc1 [Example 75, 4′-Trifluoromethyl-biphenyl-2-carboxylic acid (4-{4-[3-(5-trifluoromethyl-[1,2,4]oxadiazol-3-yl)-benzyl]-piperazin-1-yl}-phenyl)-amide] |

Second part, the compound before the results:

| Compound | IC50 (human MTP) | melting point |
| --- | --- | --- |
| 5-Methyl-4′-trifluoromethyl-biphenyl-2-carboxylic acid [-(4-(1H-pyrrol-2-ylmethyl)-piperazin-1-yl)-phenyl]-amide [Example 64] | 0.26 nM |  |
| Cc1cccc(C(=O)Nc2ccc(N3CCN(Cc4cccc(C#N)c4)CC3)cc2)c1-c1ccc(C(F)(F)F)cc1 [Example 5, 6-Methyl-4′-trifluoromethyl-biphenyl-2-carboxylic acid [4-[4-(3-cyano-benzyl)-piperazin-1-yl]-phenyl]-amide] | 0.2 nM |  |
| NC(=O)CN1CCN(c2ccc(NC(=O)c3ccccc3-c3ccc(C(F)(F)F)cc3)cc2)CC1 [Example 37, 4′-Trifluoromethyl-biphenyl-2-carboxylic acid [4-(4-carbamoylmethyl-piperazin-1-yl)-phenyl]-amide] | 8 nM |  |
| COc1cccc(C(=O)Nc2ccc(N3CCN(CC(N)=O)CC3)cc2)c1-c1ccc(C(C)C)cc1 [Example 38, 4′-Isopropyl-6-methoxy-biphenyl-2-carboxylic acid [4-(4-carbamoylmethyl-piperazin-1-yl)-phenyl]-amide] | 0.3 nM |  |
| Cc1cccc(C(=O)Nc2ccc(N3CCN(CC(N)=O)CC3)cc2)c1-c1ccc(C(C)C)cc1 [Example 39, 4′-Isopropyl-6-methyl-biphenyl-2-carboxylic acid (4-(4-carbamoylmethyl-piperazin-1-yl)-phenyl]-amide] | 0.3 nM |  |
| Cc1noc(-c2cccc(CN3CCN(c4ccc(NC(=O)c5cccc(C)c5-c5ccc(C(C)C)cc5)cc4)CC3)c2)n1 [Example 61, 4′-Isopropyl-6-methyl-biphenyl-2-carboxylic acid (4-(4-(3-(3-methyl-[1,2,4]oxadiazol-5-yl)-benzyl)-piperazine-1-yl)-phenyl)-amide] | 0.2 nM |  |
| O=C(Nc1ccc(N2CCN(Cc3ccc[nH]3)CC2)cc1)c1ccccc1-c1ccc(C(F)(F)F)cc1 [Example 62, 4′-Trifluoromethyl-biphenyl-2-carboxylic acid [4-(4-(1H-pyrrol-2-ylmethyl)-piperazin-1-yl)-phenyl]-amide] | 0.3 nM |  |
| Cc1ccc(C(=O)Nc2ccc(N3CCN(Cc4ccc[nH]4)CC3)cc2)c(-c2ccc(C(C)C)cc2)c1 [Example 63, 4′-Isopropyl-5-methyl-biphenyl-2-carboxylic acid [4-(4-(1H-pyrrol-2-ylmethyl)-piperazin-1-yl)-phenyl]-amide] | 0.7 nM |  |
| COc1cccc(C(=O)Nc2ccc(N3CCN(Cc4cccc(-c5nc(C)no5)c4)CC3)cc2)c1-c1ccc(C(C)C)cc1 [Example 74, 4′-Isopropyl-6-methoxy-biphenyl-2-carboxylic acid (4-(4-(3-(3-methyl-[1,2,4]oxadiazol-5-yl)-benzyl)-piperazine-1-yl)-phenyl)-amide] |  | 180 to 182 °C |
| N#Cc1cccc(CN2CCN(c3ccc(NC(=O)c4ccccc4-n4cccc4)cc3)CC2)c1 [Example 85, N-{4-[4-(3-Cyano-benzyl)-piperazin-1-yl]-phenyl}-2-pyrrol-1-yl-benzamide] |  | 174 °C |
| N#Cc1cccc(CN2CCN(c3ccc(NC(=O)c4ccccc4-c4ccccn4)cc3)CC2)c1 [Example 86, N-{4-[4-(3-Cyano-benzyl)-piperazin-1-yl]-phenyl}-2-pyridin-2-yl-benzamide] |  | 169 to 171 °C |
